According to patent US20230374038A1, “MODULATORS OF CYSTIC FIBROSIS TRANSMEMBRANE CONDUCTANCE REGULATOR” (VERTEX PHARMACEUTICALS INCORPORATED, priority 2020, published 2023):

Biological target: T1, CFTR (Homo sapiens, UniProt P13569, DEL508-508)
T1 construct: endogenous in cells; host or cells: primary human bronchial epithelial cells, F508del/MF genotype
Assay: HBE Assay: Ussing chamber assay of CFTR-mediated short-circuit currents in F508del/MF-HBE cells with 1 μM Ivacaftor
Type: cell-based
Details: 20% human serum; for HBE Activity at 10 μM: single fixed concentration of 10 μM; for Emax: compared to known Vertex corrector with 18 μM Tezacaftor and 1 μM Ivacaftor, read-out: HBE Max activity (%)
Description: Ussing chamber experiments were performed using human bronchial epithelial (HBE) cells derived from CF subjects heterozygous for F508del and a minimal function CFTR mutation (F508del/MF-HBE) and cultured as previously described (Neuberger T, Burton B, Clark H, Van Goor F Methods Mol Biol 2011:741:39-54). After four days the apical media was removed, and the cells were grown at an air liquid interface for >14 days prior to use.
(§1) To isolate the CFTR-mediated short-circuit (ISC) current, F508del/MF-HBE grown on Costar® Snapwell™ cell culture inserts were mounted in an Ussing chamber and the transepithelial ISC was measured under voltage-clamp recording conditions (Vhold=0 mV) at 37° C. The basolateral solution contained (in mM) 145 NaCl, 0.83 K2HIPO4, 3.3 KH2PO4, 1.2 MgCl2, 1.2 CaCl2), 10 Glucose, 10 HEPES (pH adjusted to 7.4 with NaOH) and the apical solution contained (in mM) 145 NaGluconate, 1.2 MgCl2, 1.2 CaCl2), 10 glucose, 10 HEPES (pH adjusted to 7.4 with NaOH) and 30 μM amiloride to block the epithelial sodium channel. Forskolin (20 μM) was added to the apical surface to activate CFTR, followed by apical addition of a CFTR inhibitor cocktail consisting of BPO, GlyH-101, and CFTR inhibitor 172 (each at 20 μM final assay concentration) to specifically isolate CFTR currents. The CFTR-mediated ISC (μA/cm^2) for each condition was determined from the peak forskolin response to the steady-state current following inhibition.
The activity of the CFTR corrector compounds on the CFTR-mediated ISC was determined in Ussing chamber studies as described above. The F508del/MF-HBE cell cultures were either incubated with the corrector compounds at a range of concentrations in combination with 1 μM Ivacaftor or were incubated with the corrector compounds at a single fixed concentration of 10 μM in combination with 1 μM Ivacaftor for 18-24 hours at 37° C. and in the presence of 20% human serum. The concentration of corrector compounds with 1 μM Ivacaftor during the 18-24 hours incubations was kept constant throughout the Ussing chamber measurement of the CFTR-mediated ISC to ensure compounds were present throughout the entire experiment.
as §1, with “K2HPO4,” for “K2HIPO4,”

[1] = with 1 μM Ivacaftor, 18-24 hours
[2] = range of concentrations with 1 μM Ivacaftor, 18-24 hours

T1 sequence (P13569 with tags, fused parts or gaps DEL508-508): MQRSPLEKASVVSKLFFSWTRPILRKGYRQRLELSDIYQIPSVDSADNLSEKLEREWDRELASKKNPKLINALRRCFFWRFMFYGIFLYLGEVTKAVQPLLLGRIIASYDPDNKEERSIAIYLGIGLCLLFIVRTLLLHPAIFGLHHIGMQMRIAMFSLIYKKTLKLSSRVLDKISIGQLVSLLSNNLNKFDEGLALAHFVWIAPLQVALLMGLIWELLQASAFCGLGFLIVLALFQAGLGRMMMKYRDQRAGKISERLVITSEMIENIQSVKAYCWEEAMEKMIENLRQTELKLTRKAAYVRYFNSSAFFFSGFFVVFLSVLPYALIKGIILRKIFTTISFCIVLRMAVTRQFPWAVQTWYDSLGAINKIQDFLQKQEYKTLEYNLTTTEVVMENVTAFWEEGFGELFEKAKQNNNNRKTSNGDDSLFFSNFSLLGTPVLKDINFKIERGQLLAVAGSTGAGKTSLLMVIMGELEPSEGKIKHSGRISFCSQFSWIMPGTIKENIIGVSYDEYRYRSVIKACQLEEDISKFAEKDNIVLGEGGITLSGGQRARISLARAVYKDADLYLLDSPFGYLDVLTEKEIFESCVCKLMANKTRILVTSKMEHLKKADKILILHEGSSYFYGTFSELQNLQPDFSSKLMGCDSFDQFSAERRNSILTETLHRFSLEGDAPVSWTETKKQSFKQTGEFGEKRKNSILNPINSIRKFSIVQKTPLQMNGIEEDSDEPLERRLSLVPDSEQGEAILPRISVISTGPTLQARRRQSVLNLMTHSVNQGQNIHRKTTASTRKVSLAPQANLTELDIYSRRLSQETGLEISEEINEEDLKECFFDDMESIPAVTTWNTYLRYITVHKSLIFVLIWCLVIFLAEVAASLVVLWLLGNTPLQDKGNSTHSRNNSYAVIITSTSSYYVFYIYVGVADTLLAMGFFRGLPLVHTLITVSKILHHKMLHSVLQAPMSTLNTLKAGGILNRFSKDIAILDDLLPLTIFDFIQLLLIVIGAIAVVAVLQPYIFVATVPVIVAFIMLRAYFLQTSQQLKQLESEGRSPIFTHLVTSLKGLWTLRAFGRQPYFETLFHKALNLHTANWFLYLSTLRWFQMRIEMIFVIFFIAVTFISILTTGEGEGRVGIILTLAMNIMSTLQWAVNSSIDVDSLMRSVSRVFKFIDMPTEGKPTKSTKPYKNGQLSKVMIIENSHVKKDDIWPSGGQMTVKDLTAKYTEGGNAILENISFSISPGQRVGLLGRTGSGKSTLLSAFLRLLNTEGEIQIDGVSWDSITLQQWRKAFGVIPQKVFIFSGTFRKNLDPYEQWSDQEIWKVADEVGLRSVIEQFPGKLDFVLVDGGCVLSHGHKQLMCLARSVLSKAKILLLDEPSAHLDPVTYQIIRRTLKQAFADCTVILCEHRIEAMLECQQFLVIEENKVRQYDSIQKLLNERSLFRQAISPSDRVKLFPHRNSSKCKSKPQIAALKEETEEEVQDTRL

EC50 [1] [nM]	HBE Max Activity [1]	Structure (SMILES)	also measured
		Cc1cccc(CC2CCOCC2)c1-c1nc2nc(c1C)OC[C@@H](CC(C)(C)C)N(Cc1ccc(N3CCOCC3)cn1)C(=O)c1cccc(c1)S(=O)(=O)N2 (atropisomer, axis not shown) [Compound 274]	HBE Activity at 10 μM (with 1 μM Ivacaftor): ++ (++ is 30-60%)
		Cc1cccc(C(C)C)c1-c1nc2nc(c1C)OC[C@@H](CC(C)(C)C)N(Cc1cnc(C3CCOCC3)cn1)C(=O)c1cccc(c1)S(=O)(=O)N2 (atropisomer, axis not shown) [Compound 318]	HBE Activity at 10 μM (with 1 μM Ivacaftor): +++ (+++ is >600%)
< 1000	+++ (+++ is >600%)	CCc1cccc(C)c1-c1nc2nc(c1C)OC[C@@H](CC(C)(C)C)N(Cc1ccc(N3CCOCC3)cn1)C(=O)c1cccc(c1)S(=O)(=O)N2 (atropisomer, axis not shown) [Compound 287]	
< 1000	+++ (+++ is >600%)	Cc1cccc(CC2CCCCC2)c1-c1nc2nc(c1C)OC[C@@H](CC(C)(C)C)N(Cc1ncc(C3CCCCC3)cn1)C(=O)c1cccc(c1)S(=O)(=O)N2 (atropisomer, axis not shown) [Compound 276]	
		Cc1cccc(C)c1-c1nc2nc(c1C)OC[C@@H](CC1CC1)N(Cc1ncc(OC3CCC3)cn1)C(=O)c1cccc(c1)S(=O)(=O)N2 [Compound 346]	EC50 [2]: < 1000 nM; Emax [1]: > 60%
< 1000	+++ (+++ is >600%)	Cc1cccc(CC2CCCCC2)c1-c1nc2nc(c1C)OC[C@@H](CC(C)(C)C)N(Cc1ccc(N3CCOCC3)cn1)C(=O)c1cccc(c1)S(=O)(=O)N2 (single isomer, unassigned) [Compound 206]	
< 1000	+++ (+++ is >600%)	Cc1cccc(CC(C)C)c1-c1nc2nc(c1C)OC[C@@H](CC(C)(C)C)N(Cc1ncc(CC(C)C)cn1)C(=O)c1cccc(c1)S(=O)(=O)N2 (atropisomer, axis not shown) [Compound 264]	
		Cc1cccc(C)c1-c1nc2nc(c1C)OC[C@@H](CC1CC1)N(Cc1ncc(OC(C)C)cn1)C(=O)c1cccc(c1)S(=O)(=O)N2 [Compound 345]	EC50 [2]: < 1000 nM; Emax [1]: > 60%
		CCOc1cnc(CN2C(=O)c3cccc(c3)S(=O)(=O)Nc3nc(c(C)c(-c4c(C)cccc4CC(C)C)n3)OC[C@H]2CC(C)(C)C)nc1 (atropisomer, axis not shown) [Compound 339]	EC50 [2]: < 1000 nM; Emax [1]: > 60%
< 1000	+++ (+++ is >600%)	Cc1cccc(CC(C)C)c1-c1nc2nc(c1C)OC[C@@H](CC(C)C)N(Cc1ncc(CC(C)C)cn1)C(=O)c1cccc(c1)S(=O)(=O)N2 (atropisomer, axis not shown; (P)) [Compound 219, (5P,11R)-11-isobutyl-6-(2-isobutyl-6-methyl-phenyl)-12-[(5-isobutylpyrimidin-2-yl)methyl]-7-methyl-2,2-dioxo-9-oxa-2^6-thia-3,5,12,19-tetrazatricyclo[12.3.1.14,8]nonadeca-1(18),4(19),5,7,14,16-hexaen-13-one]	
< 1000	+++ (+++ is >600%)	CCc1cccc(C)c1-c1nc2nc(c1C)OC[C@@H](CC(C)(C)C)N(Cc1ccc(N3CCOCC3)cn1)C(=O)c1cccc(c1)S(=O)(=O)N2 (atropisomer, axis not shown) [Compound 286]	
< 1000	+++ (+++ is >600%)	Cc1cccc(C(C)C)c1-c1nc2nc(c1C)OC[C@@H](CC(C)(C)C)N(Cc1ccc(N3CCOCC3)cn1)C(=O)c1cccc(c1)S(=O)(=O)N2 (atropisomer, axis not shown) [Compound 300]	
< 1000	+++ (+++ is >600%)	Cc1cccc(C(C)C)c1-c1nc2nc(c1C)OC[C@@H](CC(C)(C)C)N(Cc1ncc(N3CCOCC3)cn1)C(=O)c1cccc(c1)S(=O)(=O)N2 (single isomer, unassigned) [Compound 209]	
		Cc1cccc(CC(C)(C)C)c1-c1nc2nc(c1C)OC[C@@H](CC(C)(C)C)N(Cc1ncc(N3CCC(C)(C)C3)cn1)C(=O)c1cccc(c1)S(=O)(=O)N2 (atropisomer, axis not shown; (M)) [Compound 214, (5M,11R)-11-(2,2-dimethylpropyl)-6-[2-(2,2-dimethylpropyl)-6-methylphenyl]-12-{[5-(3,3-dimethylpyrrolidin-1-yl)pyrimidin-2-yl]methyl}-7-methyl-9-oxa-2λ^6-thia-3,5,12,19-tetraazatricyclo[12.3.1.14,8]nonadeca-1(17),4(19),5,7,14(18),15-hexaene-2,2,13-trione]	HBE Activity at 10 μM (with 1 μM Ivacaftor): ++ (++ is 30-60%)
		Cc1cccc(C)c1-c1nc2nc(c1F)OC[C@@H](CC(C)C)N(Cc1ncc(OC3CCC3)cn1)C(=O)c1cccc(c1)S(=O)(=O)N2 [Compound 338]	EC50 [2]: < 1000 nM; Emax [1]: > 60%
		Cc1cccc(CC(C)(C)C)c1-c1nc2nc(c1C)OC[C@@H](CC(C)(C)C)N(Cc1ncc(OC(C)C)cn1)C(=O)c1cccc(c1)S(=O)(=O)N2 (atropisomer, axis not shown) [Compound 351]	EC50 [2]: < 1000 nM; HBE Activity at 10 μM (%) (single fixed concentration of 10 μM with 1 μM Ivacaftor, 18-24 hours): +++ (+++ is >60%); Emax [1]: > 60%
		Cc1cccc(CC(C)C)c1-c1nc2nc(c1C)OC[C@@H](CC(C)C)N(Cc1nccc(N(C)C(C)C)n1)C(=O)c1cccc(c1)S(=O)(=O)N2 (atropisomer, axis not shown) [Compound 231]	HBE Activity at 10 μM (with 1 μM Ivacaftor): +++ (+++ is >600%)
< 1000	+++ (+++ is >600%)	COCCN(C)c1ccc(CN2C(=O)c3cccc(c3)S(=O)(=O)Nc3nc(c(C)c(-c4c(C)cccc4CC4CCCCC4)n3)OC[C@H]2CC(C)(C)C)nc1 (atropisomer, axis not shown) [Compound 290]	
< 1000	+++ (+++ is >600%)	Cc1c2nc(nc1-c1ccccc1C(C)C)NS(=O)(=O)c1cccc(c1)C(=O)N(Cc1ccc(N3CCOCC3)cn1)[C@H](CC(C)(C)C)CO2 [Compound 182]	
< 1000	+++ (+++ is >600%)	Cc1cccc(C2CC2)c1-c1nc2nc(c1C)OC[C@@H](CC(C)(C)C)N(Cc1ccc(N3CCOCC3)cn1)C(=O)c1cccc(c1)S(=O)(=O)N2 (atropisomer, axis not shown) [Compound 228]	
		Cc1cccc(COC(C)C)c1-c1nc2nc(c1C)OC[C@@H](CC(C)(C)C)N(Cc1nccc(N(C)C(C)C)n1)C(=O)c1cccc(c1)S(=O)(=O)N2 (atropisomer, axis not shown) [Compound 230]	HBE Activity at 10 μM (with 1 μM Ivacaftor): +++ (+++ is >600%)
< 1000	+++ (+++ is >600%)	Cc1cccc(CC(C)C)c1-c1nc2nc(c1C)OC[C@@H](CC(C)(C)C)N(Cc1ncc(N(C)C)cn1)C(=O)c1cccc(c1)S(=O)(=O)N2 (atropisomer, axis not shown) [Compound 236]	
< 1000	+++ (+++ is >600%)	Cc1cccc(C2CC2)c1-c1nc2nc(c1C)OC[C@@H](CC(C)(C)C)N(Cc1ncc(N3CCOCC3)cn1)C(=O)c1cccc(c1)S(=O)(=O)N2 (atropisomer, axis not shown; (P)) [Compound 216, (5P,11R)-6-(2-Cyclopropyl-6-methyl-phenyl)-11-(2,2-dimethylpropyl)-7-methyl-12-[(5-morpholinopyrimidin-2-yl)methyl]-2,2-dioxo-9-oxa-2λ^6-thia-3,5,12,19-tetrazatricyclo[12.3.1.14,8]nonadeca-1(18),4(19),5,7,14,16-hexaen-13-one]	
< 1000	+++ (+++ is >600%)	Cc1cccc(CC2CCCCC2)c1-c1nc2nc(c1C)OC[C@@H](CC(C)(C)C)N(Cc1ncccc1N1CCOCC1)C(=O)c1cccc(c1)S(=O)(=O)N2 (atropisomer, axis not shown) [Compound 309]	
